The test system of data set [1] is pain induced in CDl mice by the intraperitoneal injection of acetic acid. Description: Koster test: analgesic effect against pain induced by intraperitoneal injection of acetic acid, oral administration. The format is in vivo. The note with it: Mus musculus, read-out: Analgesic activity, Koster test ED50 (50% effective dose). The source says:
The analgesic effect was investigated in accordance with two conventional experimental procedures.

Data set [2] is described as follows: Acute toxicity, 50% lethal dose (LD50), oral administration, mice. The note with it: mouse, in vivo, Swiss mice of the CDl strain, both sexes, calculated graphically. As to the method: The tests were carried out on Swiss mice of the CDl strain, of both sexes, and the 50% lethal doses (LD50) were calculated graphically.
[3] abbreviates: oral administration, CDl mice, acetic acid i.p.

Read-outs that look alike come from different tables or passages of the source. Some results are limits rather than exact numbers.

As a reminder, the ED50 is the dose that gives a 50% effect, or the effect in half of the subjects. In the case of `Cc1c(N(C)C)c(=O)n(-c2ccccc2)n1C` [Amidopyrine, reference compound], the 50% effective dose (ED50) in data set [1] (setting [3]) stood at 40 mg/kg. In general, LD50 refers to the dose expected to kill half of the subjects tested. As to `CC(=O)OCCN1CCN(c2cccc(C(F)(F)F)c2)CC1` [SLB 093, 2-(4-m-Trifluoromethylphenylpiperazino)-ethyl acetate], in data set [2], the LD50 was 925 mg/kg. Besides, the ED50 in data set [1] (setting [3]) stood at 3.5 mg/kg.

On to `O=C(OCCN1CCN(c2cccc(C(F)(F)F)c2)CC1)c1ccccc1` [SLB 108, 2-(4-m-Trifluoromethylphenylpiperazino)-ethyl benzoate], for which the LD50 in data set [2] was over 4000 mg/kg. In data set [1] (po), the 50% effective dose (ED50) stood at 10 mg/kg. For the compound `COc1cc(C(=O)OCCN2CCN(c3cccc(C(F)(F)F)c3)CC2)cc(OC)c1OC` [SLB 169, 2-(4-m-Trifluoromethylphenylpiperazino)-ethyl 3,4,5-trimethoxybenzoate], the median lethal dose (LD50) in data set [2] is 2200 mg/kg. Moreover, the ED50 in data set [1] (setting [3]) was found to be 15 mg/kg.

On to `CCCC(CCC)C(=O)OCCN1CCN(c2cccc(C(F)(F)F)c2)CC1` [SLB 198, 2-(4-m-Trifluoromethylphenyl-piperazino)-ethyl 2-n-propyl-pentanoate], for which the 50% lethal dose (LD50) in data set [2] was 2200 mg/kg. For the same compound, the ED50 in data set [1] (setting [3]) was determined as 4.3 mg/kg.

Source of the values: patent publication US3953449A, “2-(4-M-CF3 or -SCF3 phenylpiperazino)-ethyl benzoates” (priority 1973, dated 1976).
